This passage reports IC50 results from US9732070B2, “Protein kinase C inhibitors and uses thereof” (Rigel Pharmaceuticals, Inc., priority 2009, dated 2017).

pIC50: −log10 of the molar value. Some results are limits rather than exact numbers.

One test relates to Human primary T cells. Put plainly: IL-2 ELISA, human primary T cell, anti-CD3+CD28 stimulation. The conditions noted are these: IL-2 quantified by ELISA; human primary T cells stimulated with αCD3 and αCD28, 24 hours. Type of test: cell-based. How it is done:
Human primary T cell isolation and culture: Human primary T cells were prepared as follows. Whole blood was obtained from a healthy volunteer, mixed 1:1 with PBS, layered on to Ficoll Hypaque (Amersham Pharmacia Biotech, Piscataway, N.J., Catalog #17-1440-03) in 2:1 blood/PBS:ficoll ratio and centrifuged for 30 minutes at 4° C. at 1750 rpm. The cells at the serum: ficoll interface were recovered and washed twice with 5 volumes of PBS. These freshly isolated human peripheral blood mononuclear cells were cultured in Yssel's medium containing 40 U/mL IL2 in a flask pre-coated with 1 μg/mL αCD3 and 5 μg/mL αCD28 (Anti-Human CD3, BD Pharmingen Catalog #555336, Anti-Human CD28, Beckman Coulter Catalog #IM1376). The cells were stimulated for 3-4 days, then transferred to a fresh flask and maintained in RPMI (RPMI-1640 with L-Glutamine; Mediatech, Inc., Herndon Va., cat. #10-040-CM) with 10% FBS and 40 U/mL IL-2. The primary T-cells were then washed twice with PBS to remove the IL-2.
Primary T cell stimulation and IL2 ELISA: Human primary T cells (100,000 cells per well) were pre-incubated with or without test compound in Yssel's medium for 1 hour at 37° C. Cells were then stimulated by transferring them to round-bottom 96-well plates pre-coated with 1 μg/ml αCD3 and 5 μg/ml αCD28. For counter assay, cells were instead stimulated by adding 8× stock solutions of PMA and ionomycin in Yssels (for final concentrations of 0.5 ng/ml PMA and 0.1 uM ionomycin, both from Calbiochem). Cells were incubated at 37° C. for 24 hours before 100 μL supernatants were harvested for quantification of IL-2 by ELISA using Human IL-2 Duoset ELISA Kit from R and D Systems, Cat. # DY202E.
As to `CC(C)Oc1ccc(Nc2ncc(F)c(NC3CC(C)(C)NC(C)(C)C3)n2)cc1-n1nnn(C)c1=O` [I-11, 5-fluoro-n2-{4-isopropoxy-[3-(4-methyl)-1,2,3,4-tetrazol-5-one-1-yl]}phenyl-n4-(2,2,6,6-tetramethylpiperidin-4-yl)-2,4-pyrimidinediamine], the pIC50 is more than 6.30.

For the compound `CC(C)Oc1ccc(Nc2ncc(F)c(NC3CC(C)(C)N(C)C(C)(C)C3)n2)cc1-n1nnn(C)c1=O` [I-10, 5-fluoro-n2-{4-isopropoxy-[3-(4-methyl)-1,2,3,4-tetrazol-5-one-1-yl]}phenyl-n4-(1,2,2,6,6-pentamethylpiperidin-4-yl)-2,4-pyrimidinediamine], the pIC50 was more than 6.30.

The test is the same for the next values; noted with them: T-cell; IL-2 quantified by ELISA; human primary T cells stimulated with αCD3 and αCD28, 24 hours.
As to `Cn1nnn(-c2cc(Nc3ncc(F)c(NC4CC(C)(C)NC(C)(C)C4)n3)ccc2OC2CCOCC2)c1=O` [I-27, N2-{4-(tetrahydropyran-4-yloxy)-[3-(4-methyl)-1,2,3,4-tetrazol-5-one-1-yl]}phenyl-5-fluoro-N4-(2,2,6,6-tetramethylpyridin-4-yl)-2,4-pyrimidinediamine], the pIC50 is more than 6.30. Still for that read-out and setting: then `Cn1nnn(-c2cc(Nc3ncc(F)c(NC4CC(C)(C)NC(C)(C)C4)n3)cc(C(F)(F)F)c2Cl)c1=O` [I-38, N2-{4-chloro-5-trifluoromethyl-[3-(4-methyl)-1,2,3,4-tetrazol-5-one-1-yl]}phenyl-5-fluoro-N4-(2,2,6,6-tetramethylpiperidin-4-yl)-2,4-pyrimidinediamine], with more than 6.30; and `Cn1nnn(-c2cc(Nc3ncc(F)c(NC4CC(C)(C)NC(C)(C)C4)n3)ccc2Cl)c1=O` [I-30, N2-{4-chloro-[3-(4-methyl)-1,2,3,4-tetrazol-5-one-1-yl]}phenyl-5-fluoro-N4-(2,2,6,6-tetramethylpiperidin-4-yl)-2,4-pyrimidinediamine], with more than 6.30; and `Cn1nnn(-c2cc(Nc3ncc(F)c(NC4CC(C)(C)NC(C)(C)C4)n3)cc(C(F)(F)F)c2C2CC2)c1=O` [I-39, N2-{4-cyclopropyl-5-trifluoromethyl-[3-(4-methyl)-1,2,3,4-tetrazol-5-one-1-yl]}phenyl-5-fluoro-N4-(2,2,6,6-tetramethylpiperidin-4-yl)2,5-pyrimidinediamine], with more than 6.30.

As to `Cn1nnn(-c2cc(Nc3ncc(F)c(NC4CC(C)(C)NC(C)(C)C4)n3)ccc2C2CC2)c1=O` [I-33, N2-{4-cyclopropyl-[3-(4-methyl)-1,2,3,4-tetrazol-5-one-1-yl]}phenyl-5-fluoro-N4-(2,2,6,6-tetramethylpiperidin-4-yl)-2,4-pyrimidinediamine], the pIC50 is more than 6.30. The same measure, in the same setting: then `COc1cc(Nc2ncc(F)c(NC3CC(C)(C)NC(C)(C)C3)n2)cc(-n2nnn(C)c2=O)c1` [I-32, N2-{5-methody-[3-(4-methyl)-1,2,3,4-tetrazol-5-one-1-yl]}phenyl-5-fluoro-N4-(2,2,6,6-tetramethylpiperidin-4-yl)-2,5-pyrimidinediamine], with more than 6.30; and `CN1C(C)(C)CC(Nc2nc(Nc3ccc(OC4COC4)c(-n4nnn(C)c4=O)c3)ncc2F)CC1(C)C` [I-20, 1-(5-(4-(1,2,2,6,6-pentamethylpiperidin-4-ylamino)-5fluoropyrimidine-2-ylamino)-2-(oxetan-3-yloxy)phenyl)-4-methyl-1H-tetrazol-5(4H)-one], with more than 6.30; and `CN1C(C)(C)CC(Nc2nc(Nc3cc(-n4nnn(C)c4=O)c(C4CC4)c(C(F)(F)F)c3)ncc2C#N)CC1(C)C` [I-42, 5-cyano-N2-{4-cyclopropyl-5-trifluoromethyl-[3-(4-methyl)-1,2,3,4-tetrazol-5-one-1-yl]}phenyl-N4-(1,2,2,6,6-pentamethylpiperidin-4-yl)-2,4-pyrimidinediamine], with more than 6.30. The compound `Cc1c(C(=O)O)cc(Nc2ncc(F)c(NC3CC(C)(C)N(C)C(C)(C)C3)n2)cc1-n1nnn(C)c1=O` [I-65, 5-((5-fluoro-4-((1,2,2,6,6-pentamethylpiperidin-4-yl)amino)-2-pyrimidinyl)amino)-2-methyl-3-(4-methyl-4,5-dihydro-5-oxo-1H-tetrazol-1-yl)benzoic Acid] showed a pIC50 of 4.60 to 5.52. Same read-out and setting: then `Cn1nnn(-c2cc(Nc3ncc(C#N)c(NC4CC(C)(C)NC(C)(C)C4)n3)c(F)cc2C2CC2)c1=O` [I-15, 5-cyano-N2-{4-cyclopropyl-6-fluoro[3-(4-methyl)-1,2,3,4-tetrazol-5-one-1-yl]}phenyl-N4-(2,2,6,6-tetramethylpiperidin-4-yl)-2,4-pyrimidineamine], with more than 6.30; and `COC(=O)c1cc(Nc2ncc(F)c(NC3CC(C)(C)N(C)C(C)(C)C3)n2)cc(-n2nnn(C)c2=O)c1C` [I-63, Methyl 5-((5-fluoro-4-((1,2,2,6,6-pentamethylpiperidin-4-yl)amino)-2-pyrimidinyl)amino)-2-methyl-3-(4-methyl-4,5-dihysro-5-oxo-1H-tetrazol-1-yl)benzoate], with more than 6.30; and `Cn1nnn(-c2cc(Nc3ncc(F)c(NC4CC(C)(C)NC(C)(C)C4)n3)cc(F)c2C2CC2)c1=O` [I-59, 1-(2-cyclopropyl-3-fluoro-5-(5-fluoro-4-(2,2,6,6-tetramethylpiperidin-4-ylamino)pyrimidin-2-ylamino)phenyl)-4-methyl-1H-tetrazol-5(4H)-one], with more than 6.30. The compound `Cc1cc(Nc2ncc(F)c(NC3CC(C)(C)N(C)C(C)(C)C3)n2)cc(-n2nnn(C)c2=O)c1C` [I-45, N2-(4,5-dimethyl-3-(4-methyl-4,5-dihydro-5-oxo-1H-tetrazol-1-yl)phenyl)-5-fluoro-N4-(1,2,2,6,6-pentamethylpiperidin-4-yl)pyrimidine-2,4-diamine] gave a pIC50 of more than 6.30.

`CNC(=O)c1cc(Nc2ncc(F)c(NC3CC(C)(C)N(C)C(C)(C)C3)n2)cc(-n2nnn(C)c2=O)c1C` [I-64, 5-(5-fluoro-4-(1,2,2,6,6-pentamethylpiperidin-4-ylamino)pyrimidin-2-ylamino)-N,2-dimethyl-3-(4-methyl-5-oxo-4,5-dihydro-1H-tetrazol-1-yl)benzamide] gave a pIC50 of more than 6.30. `Cc1c(Cl)cc(Nc2ncc(F)c(NC3CC(C)(C)N(C)C(C)(C)C3)n2)cc1-n1nnn(C)c1=O` [I-56, N2-(5-chloro-4-methyl-3-(4-methyl-4,5-dihydro-5-oxo-1H-tetrazol-1-yl)phenyl)-5-fluoro-N4-(1,2,2,6,6-pentamethylpiperidin-4-yl)pyrimidine-2,4-diamine] gave a pIC50 of more than 6.30. On the same count and under the same terms, then `Cn1nnn(-c2cc(Nc3ncc(F)c(NC4CC(C)(C)NC(C)(C)C4)n3)ccc2C#N)c1=O` [I-58, N2-(4-cyano-3-(4-methyl-4,5-dihydro-5-oxo-1H-tetrazol-1-yl)phenyl)-5-fluoro-N4-(2,2,6,6-tetramethylpiperidin-4-yl)pyrimidine-2,4-diamine], with more than 6.30.

`Cn1nnn(-c2cc(Nc3ncc(F)c(NC4CC(C)(C)NC(C)(C)C4)n3)ccc2OCC2(C)COC2)c1=O` [I-28, 5-fluoro-N2-{4-(3-methyloxetan-3-yl)methody-3-[(4-methyl)-1,2,3,4-tetrazol-5-one-1-yl]}phenyl-N4-(2,2,6,6-tetramethylpiperidin-4-yl)-2,4pyrimidinediamine] gave a pIC50 of more than 6.30. Still for that read-out and setting: then `Cn1nnn(-c2cc(Nc3ncc(F)c(NC4CC(C)(C)NC(C)(C)C4)n3)cc(OC3COC3)c2)c1=O` [I-25, 1-(3-(4-(2,2,6,6-tetramethylpiperidin-4-ylamino)-5-fluoropyrimidin-2-ylamino)-5-(oxetan-3-yloxy)phenyl)-4-methyl-1H-tetrazol-5(4H)-one], with more than 6.30; and `Cn1nnn(-c2cc(Nc3ncc(C#N)c(NC4CC(C)(C)NC(C)(C)C4)n3)cc(F)c2C2CC2)c1=O` [I-62, N2-(4-cyclopropyl-5-fluoro-3-(4-methyl-4,5-dihydro-5-oxo-1H-tetrazol-1-yl)phenyl)-N4-(2,2,6,6-tetramethylpiperidin-4-yl)pyrimidine-2,4-diamino-5-carbonitrile], with more than 6.30; and `CN1C(C)(C)CC(Nc2nc(Nc3cc(-n4nnn(C)c4=O)c(C4CC4)cc3F)ncc2F)CC1(C)C` [I-16, N2-{4-cyclopropyl-6-fluoro-[3-(4-methyl)-1,2,3,4-tetrazol-5-one-1-yl]}phenyl-5-fluoro-N4-(1,2,2,6,6-pentamethylpiperidin-4-yl)-2,4-pyrimidineamine], with more than 6.30. Consider `Cc1ccc(Nc2ncc(F)c(NC3CC(C)(C)NC(C)(C)C3)n2)cc1-n1nnn(C)c1=O` [I-9, 5-fluoro-n2-{4-methyl-[3-(4-methyl)-1,2,3,4-tetrazol-5-one-1-yl]}phenyl-n4-(2,2,6,6-tetramethylpiperidin-4-yl)-2,4-pyrimidinediamine], for which the pIC50 is more than 6.30. With `CN1C(C)(C)CC(Nc2nc(Nc3cc(-n4nnn(C)c4=O)c(C4CC4)cc3F)ncc2C#N)CC1(C)C` [I-17, 5-cyano-N2-{4-cyclopropyl-6-fluoro-[3-(4-methyl)-1,2,3,4-tetrazol-5-one-1-yl]}phenyl-N4-(1,2,2,6,6-pentamethylpiperidin-4-yl)-2,4-pyrimidinediamine], the pIC50 is more than 6.30.
